Reference: ChEMBL document CHEMBL5614395 (Eur J Med Chem, 2024)

test: in vitro; details: human, Caco-2

**Q.** For `COc1cc(-n2ncc3c(-c4cccc(-c5ccc(CN[C@H]6C[C@@H](O)C6)c(OC)n5)c4Cl)cccc32)cc(OC)c1CN1CC(C(=O)O)C1`, which Papp A→B is on record?
**A.** Its Papp A→B is 0.1 ×10⁻⁶ cm/s.

**Q.** Which Papp A→B does the source give for `COc1cc(-n2ncc3c(-c4cccc(-c5ccc(CN[C@H]6C[C@@H](O)C6)c(OC)n5)c4Cl)cccc32)cc(OC)c1CN(C)C12CCC(C(=O)O)(CC1)CC2` here?
**A.** The Papp A→B was 0.4 ×10⁻⁶ cm/s.

**Q.** Which Papp A→B does the source give for `COc1cc(-n2ncc3c(-c4cccc(-c5ccc(CN(C)C67CCC(C(=O)O)(CC6)CC7)c(OC)n5)c4Cl)cccc32)cc(OC)c1CN(C)[C@H]1C[C@H](O)C1` here?
**A.** Its Papp A→B is 3 ×10⁻⁶ cm/s.
